According to ChEMBL document CHEMBL3046691, “Herbicidal pyridyl derivatives of aminomethylene-bisphosphonic acid inhibit plant glutamine synthetase” (J Agric Food Chem, 2004):
The source made the active and inactive calls. The rule behind the calls is not given here.

Assays:
Oryza sativa [1] = test: Effect on amino acid pool in Oryza sativa cv. Gigante vercellese (rice) cells assessed as aspartic acid content per gram freshweight of culture at 0.5 mM after 48 hr (reference value: 1.10 +/- 0.26 umol); format: functional
[2] = target: T1, Glutamine synthetase (Oryza sativa) (UniProt Q01HZ7); test: Inhibition of Oryza sativa cv. Gigante vercellese (rice) glutamine synthetase assessed as inhibition of glutamine synthesis from glutamic acid at 1 mM after 15 min by biosynthetic assay; details: values are per cent of control
T1 sequence (whole entry): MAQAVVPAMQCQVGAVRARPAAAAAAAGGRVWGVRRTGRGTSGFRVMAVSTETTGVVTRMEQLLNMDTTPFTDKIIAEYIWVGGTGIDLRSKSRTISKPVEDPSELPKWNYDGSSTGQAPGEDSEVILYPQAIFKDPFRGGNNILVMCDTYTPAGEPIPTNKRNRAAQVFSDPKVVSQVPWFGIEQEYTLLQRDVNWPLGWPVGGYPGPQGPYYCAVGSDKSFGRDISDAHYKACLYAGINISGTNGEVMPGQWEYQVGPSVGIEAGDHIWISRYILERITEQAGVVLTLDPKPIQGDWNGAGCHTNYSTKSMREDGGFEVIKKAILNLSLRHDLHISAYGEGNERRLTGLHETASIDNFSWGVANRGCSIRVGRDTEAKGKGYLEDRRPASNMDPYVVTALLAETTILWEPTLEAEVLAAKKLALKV

[3] = target: T1, Glutamine synthetase (Oryza sativa); test: Inhibition of Oryza sativa cv. Gigante vercellese (rice) glutamine synthetase at 1 mM after 30 min by hemibiosynthetic assay; details: values are per cent of control
[4] = target: T1, Glutamine synthetase (Oryza sativa); test: Inhibition of Oryza sativa cv. Gigante vercellese (rice) glutamine synthetase at 1 mM by transferase assay; details: values are per cent of control
Oryza sativa [5] = test: Effect on amino acid pool in Oryza sativa cv. Gigante vercellese (rice) cells assessed as total amino acid content per gram fresh weight of culture at 0.5 mM after 48 hr (reference value: 24.65 +/- 0.97 umol); format: functional
Oryza sativa [6] = test: Effect on amino acid pool in Oryza sativa cv. Gigante vercellese (rice) cells assessed as glutamine content per gram fresh weight of culture at 0.5 mM after 48 hr (reference value: 4.24 +/- 0.35 umol); format: functional
Oryza sativa [7] = test: Effect on amino acid pool in Oryza sativa cv. Gigante vercellese (rice) cells assessed as serine content per gram freshweight of culture at 0.5 mM after 48 hr (reference value: 0.60 +/- 0.09 umol); format: functional
Oryza sativa [8] = test: Effect on amino acid pool in Oryza sativa cv. Gigante vercellese (rice) cells assessed as asparagine content per gram freshweight of culture at 0.5 mM after 48 hr (reference value: 3.18 +/- 0.25 umol); format: functional
Oryza sativa [9] = test: Effect on amino acid pool in Oryza sativa cv. Gigante vercellese (rice) cells assessed as glutamic acid content per gram freshweight of culture at 0.5 mM after 48 hr (reference value: 0.75 +/- 0.07 umol); format: functional
Glutamine synthetase [10] = target: T2, Glutamine synthetase (Oryza sativa, UniProt Q01HZ7); test: Inhibition of Oryza sativa cv. Gigante vercellese (rice) glutamine synthetase assessed as inhibition of glutamine synthesis from glutamic acid after 15 min by biosynthetic assay; details: read-out: I50
T2 sequence (Q01HZ7 whole entry): T1 sequence (whole entry)

Glutamine synthetase [11] = target: T2, Glutamine synthetase; test: (§1) Inhibition of Oryza sativa cv. Gigante vercellese (rice) glutamine synthetase after 30 min by hemibiosynthetic assay; details: read-out: I50
Glutamine synthetase [12] = target: T2, Glutamine synthetase; test: (§2) Inhibition of Oryza sativa cv. Gigante vercellese (rice) glutamine synthetase by transferase assay; details: read-out: I50
[13] = target: T1, Glutamine synthetase (Oryza sativa); test: as §1
[14] = target: T1, Glutamine synthetase (Oryza sativa); test: as §2
[15] = target: T1, Glutamine synthetase (Oryza sativa); test: Reversible inhibition of Oryza sativa cv. Gigante vercellese (rice) glutamine synthetase assessed as inhibition of glutamine synthesis from glutamic acid at 20 uM after 50 min by biosynthetic assay
[16] = target: T1, Glutamine synthetase (Oryza sativa); test: Reversible inhibition of Oryza sativa cv. Gigante vercellese (rice) glutamine synthetase assessed as inhibition of glutamine synthesis from glutamic acid at 10 uM after 50 min by biosynthetic assay

Row | Compound | Activity (Oryza sativa [1]) | residual activity [2] | residual activity [3] | residual activity [4] | Activity (Oryza sativa [5]) | Activity (Oryza sativa [6]) | Activity (Oryza sativa [7]) | Activity (Oryza sativa [8]) | Activity (Oryza sativa [9]) | IC50 (Glutamine synthetase [10]) | IC50 (Glutamine synthetase [11]) | IC50 (Glutamine synthetase [12]) | I50 [13] | I50 [14] | inhibition [15] | inhibition [16]
1 | O=P(O)(O)C(Nc1ccncc1)P(=O)(O)O | 1.21 umol/g fresh weight | 119% | 97.2% | 84.9% | 32.64 umol/g fresh weight | 4.79 umol/g fresh weight | 2.22 umol/g fresh weight | 1.14 umol/g fresh weight | 4.24 µmol/g fresh weight |  |  |  |  |  |  | 
2 | O=P(O)(O)C(NCc1ccccn1)P(=O)(O)O | 1.66 umol/g fresh weight | 8.8% | 16.1% | 54.6% | 26.94 umol/g fresh weight | 3.25 umol/g fresh weight | 1.53 umol/g fresh weight | 0.63 umol/g fresh weight | 4.78 µmol/g fresh weight | 64 µM | 103 µM | 1130 µM |  |  |  | 
3 | O=P(O)(O)C(Nc1ccccn1)P(=O)(O)O |  | 37.6% | 30.2% | 60.1% |  |  |  |  |  | 243 µM | 215 µM | 1040 µM |  |  |  | 
4 | O=P(O)(O)C(Nc1ccc(Cl)cn1)P(=O)(O)O |  | 13.9% | 17.5% | 52.8% |  |  |  |  |  | 69 µM | 96 µM | 1040 µM |  |  |  | 
5 | Cc1cccc(NC(P(=O)(O)O)P(=O)(O)O)n1 |  | 114% | 74.4% | 25.9% |  |  |  |  |  |  |  |  |  |  |  | 
6 | Cc1ccccc1CNC(P(=O)(O)O)P(=O)(O)O |  | 101% | 70.5% | 50.8% |  |  |  |  |  |  |  |  |  |  |  | 
7 | NC(P(=O)(O)O)P(=O)(O)O |  | 119% | 81.2% | 96.4% |  |  |  |  |  |  |  |  |  |  |  | 
8 | O=P(O)(O)C(NCc1ccccc1)P(=O)(O)O |  | 109% | 89.1% | 102% |  |  |  |  |  |  |  |  |  |  |  | 
9 | O=P(O)(O)C(Nc1ccccc1)P(=O)(O)O |  | 108% | 92% | 44.3% |  |  |  |  |  |  |  |  |  |  |  | 
10 | O=P(O)(O)C(Nc1ncccn1)P(=O)(O)O |  | 42.3% | 64.3% | 76.8% |  |  |  |  |  |  |  |  |  |  |  | 
11 | O=C(O)c1cccnc1NC(P(=O)(O)O)P(=O)(O)O [2-(DIPHOSPHONOMETHYLAMINO)NICOTINIC ACID] |  | 27.2% | 40.8% | 61% |  |  |  |  |  | 334 µM | 624 µM | 1.45 µM |  |  |  | 
12 | O=C(O)c1cccc(NC(P(=O)(O)O)P(=O)(O)O)c1 [3-(DIPHOSPHONOMETHYLAMINO)BENZOIC ACID] |  | 62.5% | 99% | 104% |  |  |  |  |  | 1800 µM |  |  | inactive | inactive |  | 
13 | O=P(O)(O)C(Nc1cc(Cl)cc(Cl)c1)P(=O)(O)O [(3,5-DICHLOROPHENYLAMINO)METHYLENEDIPHOSPHONIC ACID] | 0.57 umol/g fresh weight | 3.1% | 13.1% | 38.1% | 28.61 umol/g fresh weight | 2.72 umol/g fresh weight | 1.26 umol/g fresh weight | 0.49 umol/g fresh weight | 3.19 µmol/g fresh weight | 33 µM | 88 µM | 0.396 µM |  |  | Active | 
14 | O=[N+]([O-])c1cccc(NC(P(=O)(O)O)P(=O)(O)O)c1 [(3-NITROPHENYLAMINO)METHYLENEDIPHOSPHONIC ACID] |  | 97.6% | 101% | 95.6% |  |  |  |  |  | 738 µM | 1620 µM | 1.99 µM |  |  |  | 
15 | O=P(O)(O)C(NCCc1ccc(O)cc1)P(=O)(O)O [(4-HYDROXYPHENETHYLAMINO)METHYLENEDIPHOSPHONIC ACID] |  | 72.6% | 36.9% | 98.4% |  |  |  |  |  | 4470 µM | 695 µM |  |  | inactive |  | 
16 | O=P(O)(O)C(NC1CCCCC1)P(=O)(O)O [(CYCLOHEXYLAMINO)METHYLENEDIPHOSPHONIC ACID] |  | 50.5% | 32.7% | 46.1% |  |  |  |  |  | 1110 µM | 461 µM | 915 µM |  |  |  | 
17 | Cc1ccc(NC(P(=O)(O)O)P(=O)(O)O)cc1 [(P-TOLYLAMINO)METHYLENEDIPHOSPHONIC ACID] | 0.76 umol/g fresh weight | 14.3% | 57.6% | 93.8% | 22.91 umol/g fresh weight | 2.95 umol/g fresh weight | 0.6 umol/g fresh weight | 0.61 umol/g fresh weight | 2.97 µmol/g fresh weight | 170 µM | 774 µM |  |  | inactive |  | 
18 | CP(=O)(O)CC[C@H](N)C(=O)O [PHOSPHINOTHRICIN] |  | 2% | 9.9% | 25.7% |  |  |  |  |  | 44 µM | 49 µM | 172 µM |  |  |  | inactive
